According to ChEMBL document CHEMBL3994622, “Design and synthesis of new RAF kinase-inhibiting antiproliferative quinoline derivatives. Part 2: Diarylurea derivatives” (Eur J Med Chem, 2017):

Key:
Format in all cases: functional
NCI-H522 = assay: Growth inhibition of human NCI-H522 cells assessed as cell growth at 0.1 uM incubated for 48 hrs by sulforhodamine B assay relative to control; conditions: NCI-H522, 48 h, read-out: Activity
SK-OV-3 [1] = assay: Growth inhibition of human SKOV3 cells assessed as cell growth at 100 uM incubated for 48 hrs by sulforhodamine B assay relative to control; conditions: SK-OV-3, 48 h, read-out: Activity
SF-295 [2] = assay: Growth inhibition of human SF295 cells assessed as cell growth at 10 uM incubated for 48 hrs by sulforhodamine B assay relative to control; conditions: SF-295, 48 h, read-out: Activity
NCI-H23 = assay: Growth inhibition of human NCI-H23 cells assessed as cell growth at 10 uM incubated for 48 hrs by sulforhodamine B assay relative to control; conditions: NCI-H23, 48 h, read-out: Activity
Hs-578T = assay: Growth inhibition of human Hs 578T cells assessed as cell growth at 0.01 uM incubated for 48 hrs by sulforhodamine B assay relative to control; conditions: read-out: Activity
RXF 393 = assay: Growth inhibition of human RXF393 cells assessed as cell growth at 1 uM incubated for 48 hrs by sulforhodamine B assay relative to control; conditions: RXF 393, 48 h, read-out: Activity
SF-268 = assay: Growth inhibition of human SF268 cells assessed as cell growth at 0.01 uM incubated for 48 hrs by sulforhodamine B assay relative to control; conditions: SF-268, 48 h, read-out: Activity
COLO 205 [3] = assay: Growth inhibition of human COLO205 cells assessed as cell growth at 1 uM incubated for 48 hrs by sulforhodamine B assay relative to control; conditions: COLO 205, 48 h, read-out: Activity
SK-MEL-2 [4] = assay: Growth inhibition of human SK-MEL-2 cells assessed as cell growth at 0.01 uM incubated for 48 hrs by sulforhodamine B assay relative to control; conditions: SK-MEL-2, 48 h, read-out: Activity
PC-3 = assay: Growth inhibition of human PC3 cells assessed as cell growth at 1 uM incubated for 48 hrs by sulforhodamine B assay relative to control; conditions: PC-3, 48 h, read-out: Activity
KM12 = assay: Growth inhibition of human KM12 cells assessed as cell growth at 0.1 uM incubated for 48 hrs by sulforhodamine B assay relative to control; conditions: KM12, 48 h, read-out: Activity
SK-MEL-2 [5] = assay: Growth inhibition of human SK-MEL-2 cells assessed as cell growth at 100 uM incubated for 48 hrs by sulforhodamine B assay relative to control; conditions: SK-MEL-2, 48 h, read-out: Activity
SR = assay: Growth inhibition of human SR cells assessed as cell growth at 0.1 uM incubated for 48 hrs by sulforhodamine B assay relative to control; conditions: read-out: Activity
HCT-15 [6] = assay: Growth inhibition of human HCT15 cells assessed as cell growth at 0.01 uM incubated for 48 hrs by sulforhodamine B assay relative to control; conditions: HCT-15, 48 h, read-out: Activity
EKVX = assay: Growth inhibition of human EKVX cells assessed as cell growth at 10 uM incubated for 48 hrs by sulforhodamine B assay relative to control; conditions: read-out: Activity
MOLT-4 [7] = assay: Growth inhibition of human MOLT4 cells assessed as cell growth at 0.1 uM incubated for 48 hrs by sulforhodamine B assay relative to control; conditions: MOLT-4, 48 h, read-out: Activity
SK-MEL-28 = assay: Growth inhibition of human SK-MEL-28 cells assessed as cell growth at 0.01 uM incubated for 48 hrs by sulforhodamine B assay relative to control; conditions: SK-MEL-28, 48 h, read-out: Activity
UACC-257 = assay: Growth inhibition of human UACC257 cells assessed as cell growth at 100 uM incubated for 48 hrs by sulforhodamine B assay relative to control; conditions: UACC-257, 48 h, read-out: Activity
COLO 205 [8] = assay: Growth inhibition of human COLO205 cells assessed as cell growth at 0.01 uM incubated for 48 hrs by sulforhodamine B assay relative to control; conditions: COLO 205, 48 h, read-out: Activity
U-251 = assay: Growth inhibition of human U251 cells assessed as cell growth at 10 uM incubated for 48 hrs by sulforhodamine B assay relative to control; conditions: U-251, 48 h, read-out: Activity
HCT-116 = assay: Growth inhibition of human HCT116 cells assessed as cell growth at 100 uM incubated for 48 hrs by sulforhodamine B assay relative to control; conditions: HCT-116, 48 h, read-out: Activity
SK-OV-3 [9] = assay: Growth inhibition of human SKOV3 cells assessed as cell growth at 10 uM incubated for 48 hrs by sulforhodamine B assay relative to control; conditions: SK-OV-3, 48 h, read-out: Activity
K562 = assay: Growth inhibition of human K562 cells assessed as cell growth at 0.03 uM incubated for 48 hrs by sulforhodamine B assay relative to control; conditions: K562, 48 h, read-out: Activity
HOP-62 [10] = assay: Growth inhibition of human HOP62 cells assessed as cell growth at 0.3 uM incubated for 48 hrs by sulforhodamine B assay relative to control; conditions: HOP-62, 48 h, read-out: Activity
ACHN [11] = assay: Growth inhibition of human ACHN cells assessed as cell growth at 3 uM incubated for 48 hrs by sulforhodamine B assay relative to control; conditions: read-out: Activity
HOP-92 = assay: Growth inhibition of human HOP92 cells assessed as cell growth at 0.003 uM incubated for 48 hrs by sulforhodamine B assay relative to control; conditions: HOP-92, 48 h, read-out: Activity
MOLT-4 [12] = assay: Growth inhibition of human MOLT4 cells assessed as cell growth at 0.03 uM incubated for 48 hrs by sulforhodamine B assay relative to control; conditions: MOLT-4, 48 h, read-out: Activity
HOP-62 [13] = assay: Growth inhibition of human HOP62 cells assessed as cell growth at 0.003 uM incubated for 48 hrs by sulforhodamine B assay relative to control; conditions: HOP-62, 48 h, read-out: Activity
NCI-H226 = assay: Growth inhibition of human NCI-H226 cells assessed as cell growth at 0.3 uM incubated for 48 hrs by sulforhodamine B assay relative to control; conditions: NCI-H226, 48 h, read-out: Activity
ACHN [14] = assay: Growth inhibition of human ACHN cells assessed as cell growth at 0.003 uM incubated for 48 hrs by sulforhodamine B assay relative to control; conditions: read-out: Activity
SF-295 [15] = assay: Growth inhibition of human SF295 cells assessed as cell growth at 0.03 uM incubated for 48 hrs by sulforhodamine B assay relative to control; conditions: SF-295, 48 h, read-out: Activity
HCT-15 [16] = assay: Growth inhibition of human HCT15 cells assessed as cell growth at 3 uM incubated for 48 hrs by sulforhodamine B assay relative to control; conditions: HCT-15, 48 h, read-out: Activity
MDA-MB-231 = assay: Growth inhibition of human MDA-MB-231 cells assessed as cell growth at 3 uM incubated for 48 hrs by sulforhodamine B assay relative to control; conditions: MDA-MB-231, 48 h, read-out: Activity
MDA-MB-468 = assay: Growth inhibition of human MDA-MB-468 cells incubated for 48 hrs by sulforhodamine B assay; conditions: MDA-MB-468, 48 h

Compound `COc1cc2cc(Oc3ccc(NC(=O)Nc4ccc(Cl)c(Cl)c4)cc3)c(C)nc2cc1OC` has a growth at 0.1 µM (NCI-H522) of 99%, a growth at 100 µM (SK-OV-3 [1]) of -57% and a growth at 10 µM (SF-295 [2]) of -22%. For the same compound, the growth at 10 µM (NCI-H23) was 15%, the growth at 0.01 µM (Hs-578T) was 100% and the growth at 1 µM (RXF 393) was 104%. For the same compound, the growth at 0.01 µM (SF-268) was 103%, the growth at 1 µM (COLO 205 [3]) was 109% and the growth at 0.01 µM (SK-MEL-2 [4]) was 116%. For the same compound, the growth at 1 µM (PC-3) was 67%, the growth at 0.1 µM (KM12) was 104% and the growth at 100 µM (SK-MEL-2 [5]) was -100%. It also gave a growth at 0.1 µM (SR) of 108%, a growth at 0.01 µM (HCT-15 [6]) of 100% and a growth at 10 µM (EKVX) of -2%. For the same compound, the growth at 0.1 µM (MOLT-4 [7]) was 109%, the growth at 0.01 µM (SK-MEL-28) was 101% and the growth at 100 µM (UACC-257) was -92%. For the same compound, the growth at 0.01 µM (COLO 205 [8]) was 106%, the growth at 10 µM (U-251) was -13% and the growth at 100 µM (HCT-116) was -100%. For the same compound, the growth at 10 µM (SK-OV-3 [9]) was 41%.

`COc1cc2cc(Oc3ccc(NC(=O)Nc4ccc(Cl)c(C(F)(F)F)c4)cc3)c(C)nc2cc1OC` was tested, and the growth at 0.03 µM (K562) was 102%, the growth at 0.3 µM (HOP-62 [10]) was 86% and the growth at 3 µM (ACHN [11]) was 8%. For the same compound, the growth at 0.003 µM (HOP-92) was 92%, the growth at 0.03 µM (MOLT-4 [12]) was 96% and the growth at 0.003 µM (HOP-62 [13]) was 99%. It also gave a growth at 0.3 µM (NCI-H226) of 106%, a growth at 0.003 µM (ACHN [14]) of 95% and a growth at 0.03 µM (SF-295 [15]) of 91%. For the same compound, the growth at 3 µM (HCT-15 [16]) was 16% and the growth at 3 µM (MDA-MB-231) was -29%.

With `COc1cc2cc(Oc3ccc(NC(=O)Nc4cc(C(F)(F)F)cc(C(F)(F)F)c4)cc3)c(C)nc2cc1OC` the growth at 0.1 µM (NCI-H522) was 77%, the growth at 100 µM (SK-OV-3 [1]) was -89% and the growth at 10 µM (SF-295 [2]) was -76%. The growth at 10 µM (NCI-H23) was -32%, the growth at 0.01 µM (Hs-578T) was 98% and the growth at 1 µM (RXF 393) was 93%. The growth at 0.01 µM (SF-268) was 97%, the growth at 1 µM (COLO 205 [3]) was 92% and the growth at 0.01 µM (SK-MEL-2 [4]) was 106%. The growth at 1 µM (PC-3) was 27%, the growth at 0.1 µM (KM12) was 95% and the growth at 100 µM (SK-MEL-2 [5]) was -69%. For the same compound, the growth at 0.1 µM (SR) was 97%, the growth at 0.01 µM (HCT-15 [6]) was 93% and the growth at 10 µM (EKVX) was -55%. For the same compound, the GI50 (MDA-MB-468) was 1.08 µM, the TGI (MDA-MB-468) was 3.96 µM and the growth at 0.1 µM (MOLT-4 [7]) was 104%. For the same compound, the growth at 0.01 µM (SK-MEL-28) was 91%, the growth at 100 µM (UACC-257) was -78% and the growth at 0.01 µM (COLO 205 [8]) was 93%. The growth at 10 µM (U-251) was -85%, the growth at 100 µM (HCT-116) was -87% and the growth at 10 µM (SK-OV-3 [9]) was -75%.

`Cc1nc2cc(O)c(O)cc2cc1Oc1ccc(NC(=O)Nc2ccc(Cl)c(Cl)c2)cc1` showed a growth at 0.03 µM (K562) of 110%, a growth at 0.3 µM (HOP-62 [10]) of 108% and a growth at 3 µM (ACHN [11]) of 51%. It also gave a growth at 0.003 µM (HOP-92) of 84%, a growth at 0.03 µM (MOLT-4 [12]) of 111% and a growth at 0.003 µM (HOP-62 [13]) of 108%. The growth at 0.3 µM (NCI-H226) was 97%, the growth at 0.003 µM (ACHN [14]) was 103% and the GI50 (MDA-MB-468) was 6.99 µM. The TGI (MDA-MB-468) was 17.4 µM, the CC50 (MDA-MB-468; read-out: LC50 (the source's name)) was greater than 32.5 µM and the growth at 0.03 µM (SF-295 [15]) was 90%. The growth at 3 µM (HCT-15 [16]) was 62% and the growth at 3 µM (MDA-MB-231) was 41%.
